Test results published in patent US7375180B2, “Methods and compositions related to IRM compounds and Toll-like receptor 8” (3M Innovative Properties Company, priority 2003, dated 2008).

Key:
[1] = target: T1, TLR8 (Homo sapiens, UniProt Q9NR97); experiment: Dose dependent TLR8-mediated NF-κB-luciferase response in HEK293 cells transfected with TLR8 (Example 5); assay type: cell-based; design: expressed in transfected cells; host or cells: HEK293 (ATCC CRL-1573), pIRES vector, G-418 selected, co-transfected with NFkB-luc reporter
T1 sequence (Q9NR97 27-1041): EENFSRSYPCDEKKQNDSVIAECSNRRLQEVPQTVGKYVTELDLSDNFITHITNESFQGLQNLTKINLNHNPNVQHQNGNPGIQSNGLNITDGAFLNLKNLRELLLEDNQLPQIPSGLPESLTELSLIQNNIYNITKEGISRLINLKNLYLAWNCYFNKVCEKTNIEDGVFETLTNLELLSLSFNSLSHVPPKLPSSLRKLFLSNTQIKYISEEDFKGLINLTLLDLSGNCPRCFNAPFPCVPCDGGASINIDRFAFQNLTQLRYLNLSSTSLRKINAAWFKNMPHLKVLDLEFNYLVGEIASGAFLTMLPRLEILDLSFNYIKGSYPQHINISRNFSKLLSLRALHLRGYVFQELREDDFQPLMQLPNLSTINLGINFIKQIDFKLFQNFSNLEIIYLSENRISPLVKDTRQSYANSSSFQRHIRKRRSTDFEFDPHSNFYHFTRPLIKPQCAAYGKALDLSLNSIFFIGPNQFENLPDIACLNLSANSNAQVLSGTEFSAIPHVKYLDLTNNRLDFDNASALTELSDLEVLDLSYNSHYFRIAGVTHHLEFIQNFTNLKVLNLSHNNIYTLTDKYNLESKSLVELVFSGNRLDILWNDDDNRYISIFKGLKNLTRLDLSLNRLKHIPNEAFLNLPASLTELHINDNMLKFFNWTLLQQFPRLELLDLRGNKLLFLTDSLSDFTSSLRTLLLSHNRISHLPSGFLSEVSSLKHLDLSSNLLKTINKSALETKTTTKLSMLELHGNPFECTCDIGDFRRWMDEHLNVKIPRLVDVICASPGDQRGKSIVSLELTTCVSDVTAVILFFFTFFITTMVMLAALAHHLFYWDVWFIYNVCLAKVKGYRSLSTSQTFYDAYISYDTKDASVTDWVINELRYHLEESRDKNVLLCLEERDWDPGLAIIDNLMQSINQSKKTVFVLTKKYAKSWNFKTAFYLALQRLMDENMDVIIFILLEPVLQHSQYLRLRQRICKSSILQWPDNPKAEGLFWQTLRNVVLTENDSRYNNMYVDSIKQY
Method: Twenty-four hours before transfection, HEK293 cells were adhered to a 10 cm dish (Corning 430167, Corning Inc., Corning, N.Y.) at 37° C., 8% CO2. The cells were co-transfected with (1) pIRES (BD Biosciences Clontech, Palo Alto, Calif.) either (a) unmodified (HEK293-vector) or (b) containing human TLR8 (HEK293-TLR8), and (2) NFkB-luc reporter (Stratagene, La Jolla, Calif.) in a 10:1 ratio with Fugene 6 transfection reagent (Roche Diagnostics Corp., Indianapolis, Ind.) following the manufacturer's instructions. The plates were incubated for 24 hours following transfection and then selected in G-418 (400 μg/mL) for two weeks. The G-418-resistant cells containing either the TLR8 or empty vector were expanded in HEK293 media supplemented with G-418 for stimulation experiments.
The transfected cells were plated in white opaque 96 well plates (Costar 3917, Corning Inc., Corning, N.Y.) at a concentration of 5×10^4 cells per well in 100 μL of HEK293 media and incubated at 37° C., 8% CO2 for 4 hours. The cells were stimulated with 1 μL of IRM compounds at 1 mM in DMSO (final IRM concentration of 10 μM) or 1 μL DMSO as a control. The plates were then incubated an additional 16 hours at 37° C., 5% CO2. Luminescence was measured on an LMAX luminometer (Molecular Devices Corp., Sunnyvale, Calif.).
HEK293 cells were transfected as described in Example 1. HEK293 cultures were incubated with IRM compound or a negative control compound (1,5-dihydro-1-(2-methylpropyl)-4H-imidazo[4,5-c]quinolin-4-one, U.S. Pat. No. 4,698,348, Example 71) at concentrations of 0.1 μM, 0.3 μM, 1.0 μM, 3.0 μM, 10 μM, or 30 μM, or a vehicle control. Cultures were otherwise incubated as described in Example 1. Luciferase signals were read in RLU (Relative Luciferase Units) as described in Example 1.

[2] = target: T1, TLR8; experiment: NF-κB-luciferase reporter activation in HEK293-TLR8 cells, 10 μM IRM (Example 1); assay type: cell-based; design: expressed in transfected cells; host or cells: HEK293 (ATCC CRL-1573), pIRES vector, G-418 selected, co-transfected with NFkB-luc reporter
Description: (§1) HEK293 cells, derived from human embryonic kidney cells, may be co-transfected with (1) either a control vector (HEK293-vector) or a vector construct including human TLR8 (HEK293-TLR8), and (2) an NF-κB-luciferase reporter. The NF-κB-luciferase reporter provides a luciferase signal upon NF-κB activation in a transfected cell. Thus, TLR8-mediated NF-κB activity can be detected by exposing the cells transfected with vector and the cells transfected with the TLR8 construct to a test compound, then comparing the luciferase signal of the vector-transfected cells with the luciferase signal of the cells transfected with the TLR8 construct.
(§2) HEK293 cells were cultured in 90% Minimum Essential Medium (MEM) with 2 mM L-glutamine and Earle's Balanced Salt Solution (Invitrogen Corp., Rockville, Md.) adjusted to contain 1.5 g/L sodium bicarbonate, 0.1 mM non-essential amino acids, and 1.0 mM sodium pyruvate; 10% heat-inactivated fetal calf serum. The cells were incubated at 37° C., 8% CO2.
(§3) The cells were co-transfected with (1) pIRES (BD Biosciences Clontech, Palo Alto, Calif.) either (a) unmodified (HEK293-vector) or (b) containing human TLR8 (HEK293-TLR8), and (2) NFkB-luc reporter (Stratagene, La Jolla, Calif.) in a 10:1 ratio with Fugene 6 transfection reagent (Roche Diagnostics Corp., Indianapolis, Ind.) following the manufacturer's instructions.
(§4) The cells were stimulated with 1 μL of IRM compounds at 1 mM in DMSO (final IRM concentration of 10 μM) or 1 μL DMSO as a control. The plates were then incubated an additional 16 hours at 37° C., 5% CO2. Luminescence was measured on an LMAX luminometer (Molecular Devices Corp., Sunnyvale, Calif.).

[3] = test system: HEK293-vector; experiment: NF-κB-luciferase reporter activation in HEK293-vector control cells, 10 μM IRM (Example 1); assay type: cell-based, human; conditions: Homo sapiens, 16 hours, luciferase signal, vector-transfected cells, read-out: Fold Increase Over DMSO Control, HEK293-vector
Description: as §1, §2, §3, §4

| SMILES | Fold increase over vehicle ([1]; 0.1 μM) | Fold increase over vehicle ([1]; 0.3 μM) | Fold increase over vehicle ([1]; 1.0 μM) | Fold increase over vehicle ([1]; 3.0 μM) | Fold increase over vehicle ([1]; 10 μM) | Fold increase over vehicle ([1]; 30 μM) | Fold Increase Over DMSO Control, HEK293-TLR8 ([2]; 16 hours, luciferase signal, TLR8-transfected cells) | Fold Increase Over DMSO Control, HEK293-TLR8 / HEK293-vector ([2]; ratio of TLR8-transfected to vector-transfected cells) | fold induction at 10 µM [3] |
| --- | --- | --- | --- | --- | --- | --- | --- | --- | --- |
| CCOCc1nc2c(N)nc3cc(-c4cncc(CO)c4)ccc3c2n1CC(C)(C)O [IRM52, 1-{4-amino-2-(ethoxymethyl)-7-[5-(hydroxymethyl)pyridin-3-yl]-1H-imidazo[4,5-c]quinolin-1-yl}-2-methylpropan-2-ol] | 1.2 fold | 2.1 fold | 4.1 fold | 5.8 fold | 7.8 fold | 9.3 fold |  |  |  |
| CCOCc1nc2c(N)nc3cc(-c4ccc(CO)cc4)ccc3c2n1CC1COC(C)(C)O1 (stereo not drawn) [IRM53, 1-[(2,2-dimethyl-1,3-dioxolan-4-yl)methyl]-2-(ethoxymethyl)-7-(4-hydroxymethylphenyl)-1H-imidazo[4,5-c]quinolin-4-amine] | 0.9 fold | 1.0 fold | 1.4 fold | 2.0 fold | 3.6 fold | 7.7 fold |  |  |  |
| CCOCc1nc2c(N)nc3ccccc3c2n1CC(C)(C)NC(=O)NC1CCCC1 [IRM54, 1-[2-(4-amino-2-ethoxymethyl-1H-imidazo[4,5-c]quinolin-1-yl)-1,1-dimethylethyl]-3-cyclopentylurea] | 0.9 fold | 0.9 fold | 1.2 fold | 2.6 fold | 5.9 fold | 9.2 fold |  |  |  |
| CCCNC(=O)NC(C)(C)Cn1c(COCC)nc2c(N)nc3ccccc3c21 [IRM55, 1-[2-(4-amino-2-ethoxymethyl-1H-imidazo[4,5-c]quinolin-1-yl)-1,1-dimethylethyl]-3-propylurea] | 0.7 fold | 1.1 fold | 1.0 fold | 2.9 fold | 7.2 fold | 9.9 fold |  |  |  |
| CCOCc1nc2c(N)nc3cc(-c4ccncc4)ccc3c2n1CC(C)(C)O [IRM56, 1-[4-amino-2-ethoxymethyl-7-(pyridin-4-yl)-1H-imidazo[4,5-c]quinolin-1-yl]-2-methylpropan-2-ol] | 1.2 fold | 1.8 fold | 5.9 fold | 10.0 fold | 24.4 fold | 27.9 fold |  |  |  |
| CCOCc1nc2c(N)nc3cc(-c4cccnc4)ccc3c2n1CC(O)CO (stereo not drawn) [IRM57, 3-[4-amino-2-(ethoxymethyl)-7-(pyridin-3-yl)-1H-imidazo[4,5-c]quinolin-1-yl]propane-1,2-diol] | 1.4 fold | 1.7 fold | 3.1 fold | 7.2 fold | 10.4 fold | 12.5 fold |  |  |  |
| CCOCc1nc2c(N)nc3cc(-c4cccc(C(=O)N5CCCC5)c4)ccc3c2n1CC(C)(C)O [IRM58, {3-[4-amino-2-ethoxymethyl-1-(2-hydroxy-2-methylpropyl)-1H-imidazo[4,5-c]quinolin-7-yl]phenyl}pyrrolidin-1-ylmethanone] | 0.7 fold | 0.8 fold | 0.9 fold | 3.2 fold | 6.9 fold | 7.8 fold |  |  |  |
| CCc1nc2c(N)nc3cc(-c4ccncc4)ccc3c2n1CC(C)(C)O [IRM59, 1-[4-amino-2-ethyl-7-(pyridin-4-yl)-1H-imidazo[4,5-c]quinolin-1-yl]-2-methylpropan-2-ol] | 1.0 fold | 1.3 fold | 2.1 fold | 5.5 fold | 9.5 fold | 9.8 fold |  |  |  |
| CCOCc1nc2c(N)nc3c(c2n1NC(C)C)CCCC3 [IRM60, 2-ethoxymethyl-N^1-isopropyl-6,7,8,9-tetrahydro-1H-imidazo[4,5-c]quinoline-1,4-diamine] | 1.1 fold | 1.0 fold | 1.1 fold | 2.7 fold | 6.2 fold | 9.1 fold |  |  |  |
| CCOCc1nc2c(N)nc3cc(-c4ccc(C(=O)N(C)OC)cc4)ccc3c2n1CC(C)(C)O [IRM61, 4-[4-amino-2-ethoxymethyl-1-(2-hydroxy-2-methylpropyl)-1H-imidazo[4,5-c]quinolin-7-yl]-N-methoxy-N-methylbenzamide] | 1.0 fold | 1.1 fold | 2.9 fold | 6.7 fold | 10.3 fold | 9.4 fold |  |  |  |
| CCOCc1nc2c(N)nc3c(c2n1CC(C)(C)O)CCCC3 [IRM 1, 4-amino-2-ethoxymethyl-α,α-dimethyl-6,7,8,9-tetrahydro-1H-imidazo[4,5-c]quinoline-1-ethanol] |  |  |  |  |  |  | 8.64 fold | 10.2 | 0.85 |
